# Columns and labels:
# [1] = system: STAPH AUREUS 604; experiment: Tube Dilution Assay, STAPH AUREUS 604; type: cell-based; settings: Staphylococcus aureus; read-out: Tube Dilution Assay, gram positive, STAPH AUREUS 604
# [2] = system: STAPH AUREUS 663; experiment: Tube Dilution Assay, STAPH AUREUS 663; type: cell-based; settings: Staphylococcus aureus; read-out: Tube Dilution Assay, gram positive, STAPH AUREUS 663
# [3] = system: STAPH AUREUS 3452; experiment: Tube Dilution Assay, STAPH AUREUS 3452; type: cell-based; settings: Staphylococcus aureus; read-out: Tube Dilution Assay, gram positive, STAPH AUREUS 3452
# [4] = system: STAPH AUREUS 11127; experiment: Tube Dilution Assay, STAPH AUREUS 11127; type: cell-based; settings: Staphylococcus aureus; read-out: Tube Dilution Assay, gram positive, STAPH AUREUS 11127
# [5] = system: E. COLI 573; experiment: Tube Dilution Assay, E. COLI 573; type: cell-based; settings: Escherichia coli; read-out: Tube Dilution Assay, gram negative, E. COLI 573
# [6] = system: S. TYPHIMURIUM 804; experiment: Tube Dilution Assay, S. TYPHIMURIUM 804; type: cell-based; settings: Salmonella enterica, read-out: Tube Dilution Assay, gram negative, S. TYPHIMURIUM 804
# [7] = system: PR. MIRABILIS 431; experiment: Tube Dilution Assay, PR. MIRABILIS 431; type: cell-based; settings: Proteus mirabilis; read-out: Tube Dilution Assay, gram negative, PR. MIRABILIS 431
# [8] = system: STAPH AUREUS 11127; experiment: Mouse Protection, STAPH AUREUS 11127; type: in vivo; settings: Staphylococcus aureus
# [9] = R.O.U.R.: recovery of the antibiotic from the urine of female rats following oral administration; type: in vivo; settings: rat
# Source text: *R.O.U.R. = % recovery of the antibiotic from the urine of female rats
# following oral administration of the antibiotic.
# [10] = system: gram-positive and gram-negative organisms; experiment: in vitro antibacterial tests; type: cell-based
# [11] = animal tests of degradation in vivo
# [12] = absorption and blood levels by the oral route; type: in vivo
# [13] = activity on oral administration; type: in vivo
Compound,MIC [1],MIC [2],MIC [3],MIC [4],MIC [5],MIC [6],MIC [7],ED50 [8],dose excreted [9],activity against gram-positive and gram-negative organisms [10],degradation in vivo [11],absorption by the oral route [12],blood levels [12],activity on oral administration [13]
"CCC1=C(C(=O)O)N2C(=O)[C@@H](NC(=O)[C@H](N)c3ccccc3)[C@H]2SC1.O=C(O)C(F)(F)F [1(d), 7β-(D-2-Amino-2-phenylacetamido)-3-ethylceph-3-em-4-carboxylic acid, Trifluoroacetic Acid Salt]",1.6 µg/mL,0.3 µg/mL,1.6 µg/mL,0.08 µg/mL,8 µg/mL,16 µg/mL,16 µg/mL,< 6 mg/kg,45%,,,,,
"N#CCCC1=C(C(=O)O)N2C(=O)[C@@H](NC(=O)Cc3cccs3)[C@H]2SC1 [2(c), 3-(2-Cyanoethyl)-7β-(2-thienylacetamido)ceph-3-em-4-carboxylic acid]",1.25 µg/mL,0.08 µg/mL,4 µg/mL,1 µg/mL,62 µg/mL,16 µg/mL,31 µg/mL,,2.1%,,,,,
"CCC1=C(C(=O)O)N2C(=O)[C@@H](NC(=O)[C@H](N)c3ccccc3)[C@H]2SC1 [Example 4(b), 7β-(D-2-Amino-2-phenylacetamido)-3-ethylceph-3-em-4-carboxylic acid]",,,,,,,,,,active against gram-positive and gram-negative organisms,substantially resistant to degradation in vivo,well absorbed,good blood levels,appreciable level of activity

# Reference: patent US3974152A, “3-Ethyl- and 3-(2'cyanoethyl)-cephalosporins” (Glaxo Laboratories Limited, priority 1970, dated 1976)
